Assay results reported in patent publication US20220251096A1, “7,8-DIHYDRO-4H-PYRAZOLO[4,3-c]AZEPINE-6-ONE COMPOUNDS” (Eli Lilly and Company, priority 2019, published 2022).

Key:
[1] = system: 22Rv1 prostate cancer cells; assay: Cell proliferation assay in 22Rv1; assay type: cell-based; settings: Homo sapiens, 22Rv1, 168 h, 22Rv1, 7 days; for inhibition at 0.37 µM: single agent at 370 nM
Protocol: The purpose of the following cell proliferation assay is to detect whether the compound of Example 2 and combinations thereof have an effect on cell proliferation.
22Rv1 (purchased from ATCC CRL-2505) cells are seeded at a density of 1,000 cells per well in RMPI 10% FBS (20 μL volume) into a clear bottom 384-well cell culture plate. The plate is incubated at 37° C. and 5% CO2. The cells are dosed the following day with the compound of Example 2 and the compound of Example 2 in combination with the known anti-cancer therapeutics found in the table below. An Echo 555 acoustic dispenser is used to prepare serial dilutions (1:3) of the compound of Example 2, and combinations thereof, in concentrations ranging from 60 μM to 0.003 μM. The cells are then dosed by addition of 5 μL from the serial dilution plate to the cell plate, producing a final DMSO concentration of 0.2% with a final concentration dose ranging from 20 μM to 0.001 μM for the compound of Example 2 and combinations thereof.
Media containing 0.2% DMSO is used for the maximum point and 2 μM staurosporine in the growth media containing 0.2% DMSO is used for the minimum point. After dosing with the compound of Example 2 and combinations thereof, the cell plates are incubated at 37° C. and 5% CO2. Seven days after test compound addition, plates are removed from the incubator and cold EtOH (96%, 65 μL) is added to each well. After 30 minutes, the media is removed and RNase (20 μL, 50 μg/mL) (Sigma) and a 1:1000 propidium iodide dilution in PBS are added to each well. The plates are sealed and incubated for 1 hour at room temperature and preserved from light. Plates are then scanned with ACUMEN EXPLORER™ [Laser-scanning fluorescence microplate cytometer manufactured by TTP LABTECH LTD]. The number of 22Rv1 cells is evaluated through an estimated number of cells, calculated through the area parameter (ratio of total area of the total cells population), a designated range of peak intensity of FL-3 (PI), and the mean area of the single cell population defined by perimeter. Data is then processed through an NGR screening tool. Data is analyzed using a 4-parameter nonlinear logistic equation (four-parameter logistic concentration-response curve): Y=bot+[(top−bot)/1+(x/IC50)slope] where Y=% inhibition, X=concentration yielding y % inhibition, “bot”=minimum value of y attained by curve, “top”=maximum value of y attained by curve, and “slope”=steepness of curve at IC50. % Inh=[(median Max−x/median Max−median Min)]·100.

CREBBP [2] = biological target: T1, CREBBP (Homo sapiens, UniProt Q92793); assay: NanoBRET assay, CREBBP bromodomain; assay type: cell-based; set-up: NanoLuc-CREBBP-BD (Promega, 0.0002 μg); host or cells: HEK293; settings: NanoBRET in HEK293 cells, read after 4 hours incubation; mean ± Standard Deviation
Protocol: (§1) HEK293 cells are seeded at 10×10^6 cells/16 mL in DMEM+10% FBS in a T-75 flask and left to attach for 4-6 hours. Transfection reagents are diluted in Opti-MEM media (no phenol red, no FBS) and 8% Fugene HD containing expression plasmids at a final concentration of the following: 1: Histone H3.3 HaloTag DNA (Promega, 0.02 μg)+NanoLuc-CREBBP-BD (Promega, 0.0002 μg); 2: Histone H3.3 HaloTag DNA (Promega, 0.02 μg)+NanoLuc-EP300-BD (Promega, 0.0002 μg); 3: Histone H4 HaloTag DNA (0.02 μg)+NanLuc-BRD4 Full Length (Promega, 0.0002 μg). The DNA/Fugene mixtures are left at RT for 10 minutes. Transfection mix (800 μL) is added per flask and immediately swirled to cover the cells. The plates are returned to the incubator for overnight transfection. The next day, HaloTag NanoBRET 618 ligand (20 μL/vial of 0.1 mM) is thawed at RT. […]
(§2) Compound is serially diluted and added to 96-well plates (2 10 mM, 3-fold dilutions, 100% DMSO). […] CREBBP/EP300 plates are read after 4 hours incubation and the BRD4 plates are read after overnight incubation. To develop plates for reading, allow all reagents to reach RT before use. […] The plate is shaken for 1 minute to mix and within 10 minutes, read on Envision plate reader with the following settings: Mirror: Luminescence; Emission filter: E600LP; 2nd emission filter: D460/50; Measurement height (mm): 6.5; Measurement time (s): 0.2 second.

EOL-1 = assay: Cell growth inhibition assay, EOL-1; assay type: cell-based; settings: Homo sapiens, EOL1, 168 h; EOL-1, 7 days
Protocol: (§3) Tumor cell lines are plated onto 96-well, black wall poly-D-lysine plates (Corning #354640), and incubated at 37° C., 5% CO2 for 18-24 hours. Compound was added at 1:3 dilutions in DMSO and cells were incubated at 37° C., 5% CO2 for 7 days. For adherent cell lines, cells were fixed and stained with propidium iodide and scanned on Acumen (channel 3 setting). For suspension cell lines, cell growth was monitored using Cell Titer-Glo reagent.

SW780 = assay: Cell growth inhibition assay, SW780; assay type: cell-based; settings: Homo sapiens, 168 h; SW780, 7 days
Protocol: as §3

BRD4 (BD1, BD2) = biological target: T2, BRD4 (BD1, BD2) (Homo sapiens, UniProt O60885); assay: BromoKdELECT platform assay, BRD4 (BD1, BD2); assay type: binding; settings: 11 points dose-response, mean from a duplicate experiment
T2 construct: BRD4 (Bromodomain 1 (BD1) and Bromodomain 2 (BD2)); purchased DiscoverX (BromoKdELECT service)
Excerpt: (§4) The purpose of this assay is to evaluate the in vitro target engagement and selectivity (https://www.discoverx.com/services/drug-discovery-development-services/epigenetic-profiling/bromoscan-epigenetic-profiling/bromokdelect). Assay measurement is based on the amount of bromodomain captured in test and control samples by using quantitative PCR technology that detects the DNA label associated to bromodomain. Compounds that bind the bromodomain active site prevents its binding to the immobilized ligand and will reduce the amount of bromodomain captured on the solid support. […] Thus, compound activity is monitored by measuring the amount of bromodomain captured in test versus control samples by using qPCR. Binding affinity for test compound-bromodomain interactions are calculated by measuring the amount of bromodomain captured on the solid support as a function of the test compound concentration.
(§5) Binding affinity (Kd) of the compounds of Examples 1 and 2 towards CREBBP, EP300 and BRD4 (Bromodomain 1 (BD1) and Bromodomain 2 (BD2)) are determined in an 11 points dose-response study (See Table 5). Data is represented as a mean from a duplicate experiment.

EP300 [3] = biological target: T3, EP300 (Homo sapiens, UniProt Q09472); assay: NanoBRET assay, EP300 bromodomain; assay type: cell-based; set-up: NanoLuc-EP300-BD (Promega, 0.0002 μg); host or cells: HEK293; settings: NanoBRET in HEK293 cells, read after 4 hours incubation; mean ± Standard Deviation
T3 sequence (Q09472 1049-1156 limits assumed): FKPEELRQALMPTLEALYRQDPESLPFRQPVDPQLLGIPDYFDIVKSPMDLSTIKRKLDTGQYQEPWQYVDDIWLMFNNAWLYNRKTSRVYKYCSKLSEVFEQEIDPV
Protocol: as §1, §2

KG-1a = assay: Cell growth inhibition assay, KG-1a; assay type: cell-based; settings: Homo sapiens, 168 h, 7 days
Protocol: as §3

BRD4 (BD2) = biological target: T4, BRD4 (BD2) (Homo sapiens, UniProt O60885); assay: BromoKdELECT platform assay, BRD4 (BD2); assay type: binding; settings: 11 points dose-response, mean from a duplicate experiment
T4 construct: BRD4 (Bromodomain 1 (BD1) and Bromodomain 2 (BD2)); purchased DiscoverX (BromoKdELECT service)
Excerpt: as §4, §5

CREBBP [4] = biological target: T1, CREBBP; assay: BromoKdELECT platform assay, CREBBP; assay type: binding; set-up: purchased DiscoverX (BromoKdELECT service); settings: 11 points dose-response, mean from a duplicate experiment
Excerpt: as §4, §5

NCI-H211 = assay: Cell growth inhibition assay, NCI-H211; assay type: cell-based; settings: Homo sapiens, 168 h; NCI-H211, 7 days
Protocol: as §3

MDA-MIB-453 = assay: Cell growth inhibition assay, MDA-MIB-453; assay type: cell-based; settings: 168 h; MDA-MIB-453, 7 days
Protocol: as §3

hBRD4 = biological target: T5, hBRD4 (Homo sapiens, UniProt O60885); assay: NanoBRET assay, BRD4 full length; assay type: cell-based; settings: NanoBRET in HEK293 cells, read after overnight incubation; mean ± Standard Deviation
T5 construct: NanLuc-BRD4 Full Length (Promega, 0.0002 μg); host or cells: HEK293
Protocol: as §1, §2

BRD4 (BD1) = biological target: T6, BRD4 (BD1) (Homo sapiens, UniProt O60885); assay: BromoKdELECT platform assay, BRD4 (BD1); assay type: binding; settings: 11 points dose-response, mean from a duplicate experiment
T6 construct: BRD4 (Bromodomain 1 (BD1) and Bromodomain 2 (BD2)); purchased DiscoverX (BromoKdELECT service)
Excerpt: as §4, §5

EP300 [5] = biological target: T3, EP300; assay: BromoKdELECT platform assay, EP300; assay type: binding; set-up: purchased DiscoverX (BromoKdELECT service); settings: 11 points dose-response, mean from a duplicate experiment
Excerpt: as §4, §5

NCI-H1048 = assay: Cell growth inhibition assay, NCI-H1048; assay type: cell-based; settings: Homo sapiens, 168 h; NCI-H1048, 7 days
Protocol: as §3

T1 sequence (Q92793 1085-1192 limits assumed): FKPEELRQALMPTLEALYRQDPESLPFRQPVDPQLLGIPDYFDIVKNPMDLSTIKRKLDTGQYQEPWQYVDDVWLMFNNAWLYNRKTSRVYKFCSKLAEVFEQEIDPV

CCN1CCN(Cc2ccc(Nc3ncc(F)c(-c4cc(F)c5nc(C)n(C(C)C)c5c4)n3)nc2)CC1 [Abemaciclib, abemaciclib, reference compound]
inhibition at 0.012 µM ([1]; single agent at 12 nM): 34.3%
inhibition at 0.037 µM ([1]; single agent at 37 nM): 62.4%

Cc1nc(NC(=O)N2CCC[C@H]2C(N)=O)sc1-c1ccnc(C(C)(C)C(F)(F)F)c1 [Alpelisib, alpelisib, reference compound]
inhibition at 0.12 µM ([1]; single agent at 120 nM): 33.1%
inhibition at 0.37 µM [1]: 45.3%

CC(O)c1cc(C(=O)N[C@@H](C)Cn2ccc(-c3ccc(C#N)c(Cl)c3)n2)[nH]n1 (stereo partly shown) [Darolutamide, darolutamide, reference compound]
inhibition at 0.74 µM ([1]; single agent at 740 nM): 6.69%
inhibition at 2.2 µM ([1]; single agent at 2.2 μM): 6.18%

CNC(=O)c1ccc(N2C(=S)N(c3ccc(C#N)c(C(F)(F)F)c3)C(=O)C2(C)C)cc1F [Enzalutamide, enzalutamide, reference compound]
inhibition at 0.37 µM [1]: -0.12%
inhibition at 3.3 µM ([1]; single agent at 3.3 μM): 0.41%

CNC(=O)c1ccc(-c2cc3cccc(-c4nn(C)c5c4CN(C)C(=O)CC5)c3cn2)cn1 [Example 1, 5-[8-(1,5-Dimethyl-6-oxo-7,8-dihydro-4H-pyrazolo[4,3-c]azepin-3-yl)-3-isoquinolyl]-N-methyl-pyridine-2-carboxamide]
IC50 (CREBBP [2]): 16 ± 6.64 nM
IC50 (EOL-1): 0.8 nM
IC50 (SW780): 1 nM
Kd (BRD4 (BD1, BD2)): 4400 nM
IC50 (EP300 [3]): 15.1 ± 2.75 nM
IC50 (KG-1a): 37 nM
Kd (BRD4 (BD2)): 6700 nM
Kd (CREBBP [4]): 1.1 nM
IC50 (NCI-H211): 36 nM
IC50 (MDA-MIB-453): 28 nM
IC50 (hBRD4): 5570 ± 4100 nM
Kd (BRD4 (BD1)): 2000 nM
Kd (EP300 [5]): 0.16 nM
IC50 (NCI-H1048): 10 nM
